Experimental data published in DBAASP.
In brackets after ≈: the same amount, converted by molar mass. Several values for one entry are separate records, joined by “and”; a condition that tells them apart may be missing. Equal values may be shown once. Values belong to the compound of their own block, whether it stands above or below them.

Columns and labels:
Assay in all cases: ≥ marks a high value that may be exact or a test limit, other limits are often not marked, values filed in µg/mL are converted to µM
[1] = test system: Enterococcus faecalis ATCC 19433
Escherichia coli D21 = test system: Escherichia coli D21
[2] = test system: Enterobacter cloacae ATCC 49141
[3] = test system: Escherichia coli ATCC 25922
[4] = test system: Pseudomonas aeruginosa ATCC 27853
[5] = test system: Acinetobacter baumannii ATCC 19606
[6] = test system: Burkholderia thailandensis
[7] = test system: Bacillus subtilis var. niger ATCC 9372
Escherichia coli K91BK = test system: Escherichia coli K91BK
[8] = test system: Bacillus anthracis Sterne 34F2
[9] = test system: Staphylococcus aureus 90857
[10] = test system: Xanthomonas vesicatoria DSM 50861
[11] = test system: Pseudomonas syringae pv. tomato DC3000
[12] = test system: Pseudomonas corrugata DSM 7228
[13] = test system: Pectobacterium carotovorum subsp. carotovorum DSM 30168
[14] = test system: Clavibacter michiganensis subsp. michiganensis DSM 46294
[15] = test system: Pseudomonas syringae pv. syringae DSM 10604
[16] = test system: Staphylococcus aureus FDA 209P
[17] = test system: Escherichia coli IFO 3972
[18] = test system: Neisseria gonorrhoeae F62
[19] = test system: Neisseria gonorrhoeae FA19
[20] = test system: Staphylococcus aureus ATCC 29213
[21] = test system: Candida albicans ATCC 37092
[22] = test system: Staphylococcus epidermidis PIA 8400
[23] = test system: Enterococcus faecalis ATCC 29212
[24] = test system: Staphylococcus aureus PTCC 1431
[25] = test system: Bacillus cereus PTCC 1247
[26] = test system: Klebsiella pneumoniae PTCC 1388
[27] = test system: Escherichia coli HP101BA 7601c
[28] = test system: Staphylococcus aureus ATCC 25923
[29] = test system: Staphylococcus aureus NCTC 12981
[30] = test system: Escherichia coli NCTC 10418

SMILES: CC[C@H](C)[C@H](NC(=O)[C@H](CCCN=C(N)N)NC(=O)[C@@H](NC(=O)[C@@H](NC(=O)[C@H](CCCN=C(N)N)NC(=O)[C@H](CC(C)C)NC(=O)[C@@H](NC(=O)[C@@H](NC(=O)[C@@H]1CCCN1C(=O)CNC(=O)[C@H](Cc1ccc(O)cc1)NC(=O)[C@H](CCCCN)NC(=O)[C@H](CCCCN)NC(=O)[C@@H](NC(=O)[C@H](C)NC(=O)[C@H](Cc1cnc[nH]1)NC(=O)[C@@H](NC(=O)[C@@H](NC(=O)[C@H](CCCCN)NC(=O)[C@H](CCCN=C(N)N)NC(=O)CNC(=O)[C@H](CC(C)C)NC(=O)[C@H](CCCN=C(N)N)NC(=O)[C@H](CCCN=C(N)N)NC(=O)[C@H](CC(C)C)NC(=O)[C@H](C)NC(=O)CNC(C)=O)[C@@H](C)CC)[C@@H](C)O)C(C)C)[C@@H](C)O)C(C)C)[C@@H](C)CC)[C@@H](C)CC)C(=O)N[C@@H](C)C(=O)NCC(N)=O [GALRRLGRKITHAVKKYGPTVLRIIRIAG]
MIC [6]: ≥ 84.1 µM
MIC [7]: 1.31 µM (≈ 4.27 µg/mL)
MIC (Escherichia coli K91BK): 28.7 µM (≈ 93.4 µg/mL)
MIC [8]: 1.19 µM (≈ 3.87 µg/mL)

SMILES: CC(C)C[C@H](NC(=O)[C@H](CCCNC(=N)N)NC(=O)CNC(=O)CNC(=O)[C@@H](N)CCCNC(=N)N)C(=O)N[C@H]1CSSC[C@@H](C(N)=O)NC(=O)[C@H](C(C)C)NC(=O)[C@@H]2CSSC[C@H](NC(=O)[C@H](Cc3ccc(O)cc3)NC1=O)C(=O)N[C@@H](CCCNC(=N)N)C(=O)N[C@@H](CCCNC(=N)N)C(=O)N[C@@H](CCCNC(=N)N)C(=O)N[C@@H](Cc1ccccc1)C(=O)N2 [RGGRLCYCRRRFCVC]
MIC [18]: 0.58 µM (≈ 1.07 µg/mL)
MIC [19]: 4.11 µM (≈ 7.58 µg/mL)

SMILES: CC[C@H](C)[C@H](NC(=O)[C@H](CCCN=C(N)N)NC(=O)[C@@H](N)CCCN=C(N)N)C(=O)N[C@@H](CCCN=C(N)N)C(=O)N1CCC[C@H]1C(=O)N[C@@H](CCCN=C(N)N)C(=O)N1CCC[C@H]1C(=O)N1CCC[C@H]1C(=O)N[C@@H](CCCN=C(N)N)C(=O)N[C@@H](CC(C)C)C(=O)N1CCC[C@H]1C(=O)N[C@@H](CCCN=C(N)N)C(=O)N1CCC[C@H]1C(=O)N[C@@H](CCCN=C(N)N)C(=O)N1CCC[C@H]1C(=O)N[C@@H](CCCN=C(N)N)C(=O)N1CCC[C@H]1C(=O)N[C@@H](CC(C)C)C(=O)N1CCC[C@H]1C(=O)N[C@@H](Cc1ccccc1)C(=O)N1CCC[C@H]1C(=O)N[C@@H](CCCN=C(N)N)C(=O)N1CCC[C@H]1C(=O)NCC(=O)O [RRIRPRPPRLPRPRPRPLPFPRPG]
MIC [20]: 2.6 µM (≈ 7.64 µg/mL)
MIC [3]: 0.45 µM (≈ 1.32 µg/mL)
MIC [21]: 1.12 µM (≈ 3.29 µg/mL)

SMILES: CC[C@H](C)[C@H](NC(=O)[C@H](Cc1cnc[nH]1)NC(=O)[C@H](CCC(N)=O)NC(=O)[C@H](CCSC)NC(=O)[C@H](CCSC)NC(=O)[C@H](CCC(=O)O)NC(=O)[C@H](C)NC(=O)[C@H](C)NC(=O)[C@@H](NC(=O)[C@H](CO)NC(=O)[C@H](C)NC(=O)[C@@H](NC(=O)[C@H](Cc1ccccc1)NC(=O)[C@@H]1CCCN1C(=O)[C@@H](NC(=O)[C@@H](N)C(C)C)[C@@H](C)CC)C(C)C)C(C)C)C(=O)N[C@@H](Cc1ccccc1)C(=O)N[C@H]1CSSC[C@@H](C(=O)O)NC(=O)[C@H](CCCCN)NC(=O)[C@H](CCCN=C(N)N)NC(=O)[C@H](CO)NC(=O)[C@H](C)NC(=O)[C@H](C)NC1=O [VIPFVASVAAEMMQHIFCAASRKC]
MIC [24]: 6.51 µM (≈ 17 µg/mL)
MIC [25]: 4.6 µM (≈ 12 µg/mL)
MIC [26]: 5.36 µM (≈ 14 µg/mL)
MIC [27]: 3.06 µM (≈ 7.99 µg/mL)

SMILES: NC(=O)[C@H](Cc1c[nH]c2ccccc12)NC(=O)[C@H](CCCN=C(N)N)NC(=O)[C@H](Cc1c[nH]c2ccccc12)NC(=O)[C@H](CCCN=C(N)N)NC(=O)[C@@H](N)Cc1c[nH]c2ccccc12 [WRWRW]
MIC [28]: 11.2 µM (≈ 9.99 µg/mL)
MIC [29]: ≥ 72 µM
MIC [30]: ≥ 72 µM
MIC [3]: 16.9 µM (≈ 15 µg/mL)
MIC [4]: 56.2 µM (≈ 49.9 µg/mL)

The remaining lines, values ahead:

MIC [1]: ≥ 50 µM
MIC (Escherichia coli D21): 25 µM (≈ 44.2 µg/mL)
MIC [2]: 6.2 µM (≈ 11 µg/mL)
MIC [3]: 50 µM and 75 µM
MIC [4]: 12.5 µM and 25 µM
MIC [5]: 25 µM (≈ 44.2 µg/mL)
SMILES: CC(C)C[C@H](NC(=O)[C@H](CCCCN)NC(=O)[C@H](CCCCN)NC(=O)[C@H](CC(C)C)NC(=O)[C@H](CC(C)C)NC(=O)[C@H](CCCCN)NC(=O)[C@H](CCCCN)NC(=O)[C@H](CC(C)C)NC(=O)[C@H](CC(C)C)NC(=O)[C@H](CCCCN)NC(=O)[C@H](CCCCN)NC(=O)[C@H](CC(C)C)NC(=O)[C@H](C)NC(=O)[C@H](CC(=O)O)NC(=O)[C@@H](N)CC(=O)O)C(=O)O [DDALKKLLKKLLKKL]

MIC [9]: 3 µM (≈ 4.43 µg/mL)
MIC [10]: 0.169 µM (≈ 0.25 µg/mL)
MIC [11]: 0.169 µM (≈ 0.25 µg/mL)
MIC [12]: 0.338 µM (≈ 0.5 µg/mL)
MIC [13]: 1.69 µM (≈ 2.5 µg/mL)
MIC [14]: 0.338 µM (≈ 0.5 µg/mL)
MIC [15]: 0.338 µM (≈ 0.5 µg/mL)
SMILES: CC[C@H](C)[C@H](NC(=O)[C@H](CC(C)C)NC(=O)[C@H](CCCCN)NC(=O)[C@H](CCCCN)NC(=O)[C@H](CC(C)C)NC(=O)[C@@H](NC(=O)[C@H](CCCCN)NC(=O)[C@H](CCCCN)NC(=O)[C@@H](NC(=O)[C@@H](NC(=O)[C@H](CCCN=C(N)N)NC(=O)[C@@H](N)CC(C)C)[C@@H](C)CC)[C@@H](C)CC)[C@@H](C)CC)C(N)=O [LRIIKKILKKLI]

MIC [16]: ≥ 500 µM
MIC [17]: ≥ 500 µM
SMILES: CC(C)[C@H](NC(=O)[C@H](CCCCN)NC(=O)[C@H](CCCN=C(N)N)NC(=O)[C@H](CCCCN)NC(=O)[C@H](CCCCN)NC(=O)[C@H](CCCCN)NC(=O)[C@@H]1CCCN1)C(=O)O [PKKKRKV]

MIC [22]: 13.8 µM (≈ 17 µg/mL)
MIC [20]: 27.7 µM (≈ 34 µg/mL)
MIC [23]: 55.3 µM and 110 µM
MIC [3]: 13.8 µM (≈ 17 µg/mL)
SMILES: CC[C@H](C)[C@H](NC(=O)[C@H](Cc1c[nH]c2ccccc12)NC(=O)[C@@H](NC(=O)[C@@H](NC(=O)[C@H](Cc1c[nH]c2ccccc12)NC(=O)[C@H](CCCCN)NC(=O)[C@H](CCCCN)NC(=O)[C@@H](NC(=O)[C@@H](N)CCCN=C(N)N)[C@@H](C)O)[C@@H](C)CC)C(C)C)C(N)=O [RTKKWIVWI]
